Assay results from US8323708B2, “Poultry meat and eggs comprising beneficial fatty acids” (Monsanto Technology LLC, priority 2009, dated 2012).

Experiment: Laying hen study: long chain fatty acid composition of eggs
Format: in vivo, laying hens
Procedure: A study was conducted to determine whether laying hens fed a diet enriched in stearidonic acid could produce eggs with elevated levels of beneficial omega-3 fatty acids including EPA and DHA. Mature laying hens […] were randomly allotted to seven dietary treatments (16 hens/treatment) and were fed diets containing the following levels of n-3 fatty acids as described in Table 28 for four weeks. Sixteen birds were given each treatment. Four birds were randomly selected out of the 16 per treatment to obtain eggs during week 4 for fatty acid composition. […] The laying hens had ad libitum access to feed and water. The composition of the diets (Table 29) and premixes (Table 30) are provided below. To help prevent oxidation of the fatty acids, 0.05% ethoxyquin (Rendox) was added to each premix. Premixes were manufactured within 3 days of arrival of ethyl esters. To limit the oxidation associated with storage, diets were manufactured once and stored in a refrigerated cooler at 4° C. during the duration of the study. Eggs collected during […] (days 22-28) were maintained under refrigerated conditions until all eggs for that week were collected. Eggs were sorted by hen and treatment. Two eggs per hen from 4 hens per treatment were taken. The two eggs were weighed individually, cracked and the shell weighed. The difference between fresh egg and shell represented liquid egg weight and served as the basis for further calculations. The liquid fraction from each of the two eggs per hen were combined in a sample cup and homogenized. Samples were analyzed for fatty acids by gas chromatography.

## CC/C=C\C/C=C\C/C=C\CCCCCCCC(=O)OCC [ALA Ethyl Ester]
Total egg, 0.932% of diet
  ALA (C18:3n-3): 267.5 mg/100 g
  DHA (C22:6n-3): 132.5 mg/100 g
  DPA (C22:5 n-3): 22.5 mg/100 g
  EPA (C20:5n-3): 7.5 mg/100 g
  Omega 6/Omega 3 ratio: 2.9
  Total omega 3's: 430 mg/100 g
Total egg, 1.864% of diet
  ALA (C18:3n-3): 622.5 mg/100 g
  DHA (C22:6n-3): 155 mg/100 g
  DPA (C22:5 n-3): 32.5 mg/100 g
  EPA (C20:5n-3): 12.5 mg/100 g
  Omega 6/Omega 3 ratio: 1.5
  SDA (C18:4n-3): 2.5 mg/100 g
  Total omega 3's: 825 mg/100 g

## CC/C=C\C/C=C\C/C=C\CCCCCCCC(=O)OCC [ALA, alpha-Linolenic Acid - Ethyl Esters]
Dietary enrichment of laying hens
  accumulation of SDA or DPA in eggs: no significant accumulation
